{"source": "ChEMBL document CHEMBL3352227", "about": "“Synthesis, antimycobacterial and antibacterial evaluation of l-[(1R, 2S)-2-fluorocyclopropyl]fluoroquinolone derivatives containing an oxime functional moiety” (Eur J Med Chem, 2014)", "key": {"[1]": {"test_system": "Mycobacterium tuberculosis", "test": "Antimycobacterial activity against isoniazid and rifampicin resistant Mycobacterium tuberculosis 6133 by MABA method", "assay_type": "functional"}, "[2]": {"test_system": "Mycobacterium tuberculosis", "test": "Antimycobacterial activity against isoniazid and rifampicin resistant Mycobacterium tuberculosis 11277 by MABA method", "assay_type": "functional"}}, "data": [{"smiles": "CCO/N=C1/CN(c2nc3c(cc2F)c(=O)c(C(=O)O)cn3[C@@H]2C[C@@H]2F)CC1CN", "note": "(stereo partly specified)", "values": [{"measurement": "MIC", "setting": "[1]", "result": 0.125, "unit": "µg/mL"}, {"measurement": "MIC", "setting": "[2]", "result": 0.125, "unit": "µg/mL"}]}, {"smiles": "CO/N=C1/CN(c2cc3c(cc2F)c(=O)c(C(=O)O)cn3[C@@H]2C[C@@H]2F)[C@H]1CN", "values": [{"measurement": "MIC", "setting": "[1]", "result": 0.125, "unit": "µg/mL"}, {"measurement": "MIC", "setting": "[2]", "result": 0.25, "unit": "µg/mL"}]}, {"smiles": "O=C(O)c1cn(C2CC2)c2cc(N3CCNCC3)c(F)cc2c1=O", "note": "[CIPROFLOXACIN]", "values": [{"measurement": "MIC", "setting": "[1]", "result": 0.125, "unit": "µg/mL"}, {"measurement": "MIC", "setting": "[2]", "result": 0.125, "unit": "µg/mL"}]}, {"smiles": "NCC1CN(c2nc3c(cc2F)c(=O)c(C(=O)O)cn3[C@@H]2C[C@@H]2F)C/C1=N/OCc1ccccc1", "note": "(stereo partly specified)", "values": [{"measurement": "MIC", "setting": "[1]", "result": 0.125, "unit": "µg/mL"}, {"measurement": "MIC", "setting": "[2]", "result": 0.5, "unit": "µg/mL"}]}, {"smiles": "CO/N=C1/CCN(c2c(F)cc3c(=O)c(C(=O)O)cn([C@@H]4C[C@@H]4F)c3c2OC)CC1N", "note": "(stereo partly specified)", "values": [{"measurement": "MIC", "setting": "[1]", "result": 0.0625, "unit": "µg/mL"}, {"measurement": "MIC", "setting": "[2]", "result": 0.125, "unit": "µg/mL"}]}, {"smiles": "CCO/N=C1/CN(c2cc3c(cc2F)c(=O)c(C(=O)O)cn3[C@@H]2C[C@@H]2F)CC1CN", "note": "(stereo partly specified)", "values": [{"measurement": "MIC", "setting": "[1]", "result": 0.125, "unit": "µg/mL"}, {"measurement": "MIC", "setting": "[2]", "result": 0.125, "unit": "µg/mL"}]}, {"smiles": "NCC1CN(c2cc3c(cc2F)c(=O)c(C(=O)O)cn3[C@@H]2C[C@@H]2F)C/C1=N/OCc1ccccc1", "note": "(stereo partly specified)", "values": [{"measurement": "MIC", "setting": "[1]", "result": 0.125, "unit": "µg/mL"}, {"measurement": "MIC", "setting": "[2]", "result": 0.25, "unit": "µg/mL"}]}, {"smiles": "NC[C@H]1/C(=N\\OCc2ccccc2)CN1c1cc2c(cc1F)c(=O)c(C(=O)O)cn2[C@@H]1C[C@@H]1F", "values": [{"measurement": "MIC", "setting": "[1]", "result": 0.25, "unit": "µg/mL"}, {"measurement": "MIC", "setting": "[2]", "result": 0.5, "unit": "µg/mL"}]}, {"smiles": "CO/N=C1/CN(c2nc3c(cc2F)c(=O)c(C(=O)O)cn3[C@@H]2C[C@@H]2F)CC1CN", "note": "(stereo partly specified)", "values": [{"measurement": "MIC", "setting": "[1]", "result": 0.125, "unit": "µg/mL"}, {"measurement": "MIC", "setting": "[2]", "result": 0.25, "unit": "µg/mL"}]}, {"smiles": "NNC(=O)c1ccncc1", "note": "[ISONIAZID]", "values": [{"measurement": "MIC", "setting": "[1]", "result": 4, "unit": "µg/mL"}, {"measurement": "MIC", "setting": "[2]", "result": 1, "unit": "µg/mL"}]}, {"smiles": "CO[C@H]1/C=C/O[C@@]2(C)Oc3c(C)c(O)c4c(O)c(c(/C=N/N5CCN(C)CC5)c(O)c4c3C2=O)NC(=O)/C(C)=C\\C=C\\[C@H](C)[C@H](O)[C@@H](C)[C@@H](O)[C@@H](C)[C@H](OC(C)=O)[C@@H]1C", "note": "[RIFAMPIN]", "values": [{"measurement": "MIC", "setting": "[1]", "result": "> 40", "unit": "µg/mL"}, {"measurement": "MIC", "setting": "[2]", "result": "> 40", "unit": "µg/mL"}]}, {"smiles": "CO/N=C1/CN(c2c(F)cc3c(=O)c(C(=O)O)cn([C@@H]4C[C@@H]4F)c3c2OC)[C@H]1CN", "values": [{"measurement": "MIC", "setting": "[1]", "result": 0.125, "unit": "µg/mL"}, {"measurement": "MIC", "setting": "[2]", "result": 0.25, "unit": "µg/mL"}]}, {"smiles": "C[C@H]1COc2c(N3CCN(C)CC3)c(F)cc3c(=O)c(C(=O)O)cn1c23.C[C@H]1COc2c(N3CCN(C)CC3)c(F)cc3c(=O)c(C(=O)O)cn1c23.O", "note": "[LEVOFLOXACIN]", "values": [{"measurement": "MIC", "setting": "[1]", "result": 0.125, "unit": "µg/mL"}, {"measurement": "MIC", "setting": "[2]", "result": 0.125, "unit": "µg/mL"}]}]}
